Results published in patent US20190040004A1, “NEW COMPOUNDS FOR THE TREATMENT AND/OR PREVENTION OF PARASITIC DISEASES AND METHOD OF PRODUCTION OF THEREOF” (INSTITUT DE RECHERCHE POUR LE DEVELOPPEMENT (I.R.D.), priority 2013, published 2019).
“Also recorded” adds a separate entry of the source. Read-outs that look alike come from different tables or passages of the source.

What was measured:
HFF cells = assay: MTT cytotoxicity on HFF host cells; assay type: cell-based
Description: (§1) Antiparasitic activity of a compound is represented by ICo50, which is calculated with Prism software (Prism4 for MacOSX Version 5.0b, December 2008). The cytoxicity of a compound against the host cells of L. infantum and T. gondii, such as THP-1 or HFF cells, was determined with a MTT assay, according to previously described protocol (Sereno et al., Antimicrob Agents Chemother. 2001, 45(4):1168-73). THP-1 is derived from the peripheral blood ofa human with acute monocytic leukemia.

[1] = system: HDAC activity from HELA nuclear extract; assay: Fluorimetric HDAC assay, HeLa nuclear extract; assay type: biochemical, human; settings: read-out: IC50 (better HDAC inhibitor among 9 tested compounds)
Description: (§2) HDAC inhibitory activity was determined by a fluorimetric HDAC assay kit (Active-motif, Belgium), according to manufacturer's instructions. […] Fluorogenic substrate (10 μL) was added, reaction was allowed to proceed for 30 min at room temperature, then stopped by the addition of a developer containing Tichostatin A.

[2] = system: T1, HDAC activity from HELA nuclear extract; assay: Fluorimetric HDAC assay, HeLa nuclear extract; assay type: biochemical, human
T1 construct: HELA Nuclear extracts IC50; other: HeLa nuclear extract, fluorimetric HDAC kit; […]
Description: as §2

[3] = system: Leishmania infantum luciferase expressing strain (MHOM/MA/ITMAP269); assay: microbe, parasite or virus in culture; assay type: cell-based; settings: for IC50: Leishmania infantum, read-out: L. infantum IC50
Description: THP-1 is derived from the peripheral blood ofa human with acute monocytic leukemia.

[4] = system: T. gondii (GFP expressing parasites) in HFF; assay: T. gondii proliferation in human foreskin fibroblasts; assay type: cell-based, Toxoplasma gondii; settings: for IC50: 24 h
Description: To assess the drug activity on toxoplasma proliferation, human foreskin fibroblasts (HFF) were infected with GFP expressing parasites for 30 mns (Striepen et al., Mol Biochem Parasitol. 1998, 92(2):325-38). Cells were then washed and drugs added at various concentrations ranging from 0.1 to 10 uM. After 24 h, cells were washed and fixed (PBS-formaldehyde 2%) and nucleus stained with Hoechst 33258 (2 μg/ml). The number of infected cells i.e cells harbouring a parasitophorous vacuole and the number of parasites per vacuole were determined using an Olympus ScanR microscope (Olympus).
as §1

THP-1 cells = assay: MTT cytotoxicity on THP-1 host cells; assay type: cell-based
Description: as §1

recombinant HDAC1 = recombinant HDAC1 (Homo sapiens, UniProt Q13547); assay: Recombinant HDAC1 inhibition; assay type: biochemical
Sequence of recombinant HDAC1 (Q13547 whole entry): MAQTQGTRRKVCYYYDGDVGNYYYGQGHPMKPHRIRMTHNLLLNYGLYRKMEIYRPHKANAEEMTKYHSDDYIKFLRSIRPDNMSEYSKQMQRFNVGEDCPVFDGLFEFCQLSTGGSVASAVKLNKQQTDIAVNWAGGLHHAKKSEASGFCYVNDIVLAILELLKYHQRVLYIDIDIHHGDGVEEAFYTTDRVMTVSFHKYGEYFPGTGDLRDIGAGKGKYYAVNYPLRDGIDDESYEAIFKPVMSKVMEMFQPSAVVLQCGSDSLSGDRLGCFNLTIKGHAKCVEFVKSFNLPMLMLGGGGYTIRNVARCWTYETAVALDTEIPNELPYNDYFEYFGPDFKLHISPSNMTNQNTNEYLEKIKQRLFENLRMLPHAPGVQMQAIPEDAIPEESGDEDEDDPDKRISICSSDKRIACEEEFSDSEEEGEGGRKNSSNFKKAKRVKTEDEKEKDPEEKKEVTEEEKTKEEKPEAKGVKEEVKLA
Description: FIG. 2 illustrates the capacity of the different compounds of 600 nM to inhibit HDAC activity from HELA nuclear extract and from HDAC-recombinant proteins (HDAC 1, HDAC 3, HDAC 6, HDAC 8).
HDAC inhibitory activity was determined by a fluorimetric HDAC assay kit (Active-motif, Belgium), according to manufacturer's instructions. Briefly, 30 μL of HeLa nuclear extract were mixed with 5 μL of 10× compound to be tested and 10 μL of assay buffer. Fluorogenic substrate (10 μL) was added, reaction was allowed to proceed for 30 min at room temperature, then stopped by the addition of a developer containing Tichostatin A. Fluorescence was monitored after 30 min at excitation and emission wavelengths of 360 and 460 nm, respectively. […].

[5] = system: T2, HDAC activity from HELA nuclear extract; assay: Fluorimetric HDAC assay, HeLa nuclear extract; assay type: biochemical, human; settings: 600 nM; HELA nuclear extract and HDAC-recombinant proteins
T2 construct: other: 600 nM; HELA nuclear extract and HDAC-recombinant proteins
Description: as §2

recombinant HDAC 8 = biological target: T3, recombinant HDAC 8 (Homo sapiens, UniProt Q9BY41); assay: Recombinant HDAC8 inhibition; assay type: biochemical
T3 sequence (Q9BY41 1-377): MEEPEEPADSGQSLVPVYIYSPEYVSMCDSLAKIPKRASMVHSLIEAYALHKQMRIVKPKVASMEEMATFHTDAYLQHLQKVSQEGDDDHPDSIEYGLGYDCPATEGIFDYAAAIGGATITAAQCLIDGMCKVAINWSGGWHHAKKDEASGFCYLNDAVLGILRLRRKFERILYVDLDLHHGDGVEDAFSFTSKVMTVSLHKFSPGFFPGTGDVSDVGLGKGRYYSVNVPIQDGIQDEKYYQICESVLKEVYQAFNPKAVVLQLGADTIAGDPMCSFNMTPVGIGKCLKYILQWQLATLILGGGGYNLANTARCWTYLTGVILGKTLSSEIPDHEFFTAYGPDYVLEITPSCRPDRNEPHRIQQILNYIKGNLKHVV

recombinant HDAC3 = recombinant HDAC3 (Homo sapiens, UniProt O15379); assay: Recombinant HDAC3 inhibition; assay type: biochemical
Sequence of recombinant HDAC3 (O15379 whole entry): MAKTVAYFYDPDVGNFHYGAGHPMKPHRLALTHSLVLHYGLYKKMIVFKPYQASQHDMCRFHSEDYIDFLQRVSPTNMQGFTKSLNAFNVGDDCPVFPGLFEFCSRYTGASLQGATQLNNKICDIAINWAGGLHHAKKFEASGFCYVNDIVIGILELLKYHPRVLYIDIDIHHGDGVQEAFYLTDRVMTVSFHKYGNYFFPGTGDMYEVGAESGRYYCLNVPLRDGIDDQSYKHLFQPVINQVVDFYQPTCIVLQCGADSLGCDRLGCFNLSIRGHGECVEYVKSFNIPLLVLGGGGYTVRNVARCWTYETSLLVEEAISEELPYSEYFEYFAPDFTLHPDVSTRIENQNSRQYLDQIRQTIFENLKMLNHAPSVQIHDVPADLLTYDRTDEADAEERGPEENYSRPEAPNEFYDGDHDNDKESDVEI
Sequence of recombinant HDAC3 (Q9Y618 395-489 partner limits assumed): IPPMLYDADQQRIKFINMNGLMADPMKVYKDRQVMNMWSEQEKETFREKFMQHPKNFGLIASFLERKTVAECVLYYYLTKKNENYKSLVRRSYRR

[6] = system: type II Prugniaud parasites; assay: Type II Prugniaud Toxoplasma proliferation in HFF; assay type: cell-based, Toxoplasma gondii; settings: 0.025 to 0.8 uM, 24 h
Description: (§3) To compare the activity of compounds according to the invention to that of prior art on toxoplasma proliferation, human foreskin fibroblasts (HFF) were plated in 96-wells plate (10 000 cells per well). Twenty-four hours later, cells were infected with 40 000 parasites, either RH-YFP type I or type II Prugniaud parasites or tachyzoites (kindly provided by B. Striepen, Athens) for one hour. Cells were then washed and drugs (compound D16 of formula
(§4) (FIG. 4 and FIG. 5) or compound according to the invention (363) (FIG. 6) added at various concentrations ranging from 0.025 to 0.8 uM. After 24 h, cells were washed and fixed (PBS-formaldehyde 2%) and nucleus stained with Hoechst 33258 (2 μg/ml). The number of infected cells ie. cells harbouring a parasitophorous vacuole and the number of parasites per vacuole was determined using an Olympus ScanR microscope (Olympus).

Babesia = Babesia proliferation; assay type: cell-based
[7] = system: deacetylase activity in total protein extracts of T. gondii; assay: Deacetylase activity in total protein extracts of T. gondii; assay type: biochemical; settings: 125 nM
recombinant HDAC6 = biological target: T4, recombinant HDAC6 (Homo sapiens, UniProt Q9UBN7); assay: Recombinant HDAC6 inhibition; assay type: biochemical
T4 sequence (Q9UBN7 1-1215): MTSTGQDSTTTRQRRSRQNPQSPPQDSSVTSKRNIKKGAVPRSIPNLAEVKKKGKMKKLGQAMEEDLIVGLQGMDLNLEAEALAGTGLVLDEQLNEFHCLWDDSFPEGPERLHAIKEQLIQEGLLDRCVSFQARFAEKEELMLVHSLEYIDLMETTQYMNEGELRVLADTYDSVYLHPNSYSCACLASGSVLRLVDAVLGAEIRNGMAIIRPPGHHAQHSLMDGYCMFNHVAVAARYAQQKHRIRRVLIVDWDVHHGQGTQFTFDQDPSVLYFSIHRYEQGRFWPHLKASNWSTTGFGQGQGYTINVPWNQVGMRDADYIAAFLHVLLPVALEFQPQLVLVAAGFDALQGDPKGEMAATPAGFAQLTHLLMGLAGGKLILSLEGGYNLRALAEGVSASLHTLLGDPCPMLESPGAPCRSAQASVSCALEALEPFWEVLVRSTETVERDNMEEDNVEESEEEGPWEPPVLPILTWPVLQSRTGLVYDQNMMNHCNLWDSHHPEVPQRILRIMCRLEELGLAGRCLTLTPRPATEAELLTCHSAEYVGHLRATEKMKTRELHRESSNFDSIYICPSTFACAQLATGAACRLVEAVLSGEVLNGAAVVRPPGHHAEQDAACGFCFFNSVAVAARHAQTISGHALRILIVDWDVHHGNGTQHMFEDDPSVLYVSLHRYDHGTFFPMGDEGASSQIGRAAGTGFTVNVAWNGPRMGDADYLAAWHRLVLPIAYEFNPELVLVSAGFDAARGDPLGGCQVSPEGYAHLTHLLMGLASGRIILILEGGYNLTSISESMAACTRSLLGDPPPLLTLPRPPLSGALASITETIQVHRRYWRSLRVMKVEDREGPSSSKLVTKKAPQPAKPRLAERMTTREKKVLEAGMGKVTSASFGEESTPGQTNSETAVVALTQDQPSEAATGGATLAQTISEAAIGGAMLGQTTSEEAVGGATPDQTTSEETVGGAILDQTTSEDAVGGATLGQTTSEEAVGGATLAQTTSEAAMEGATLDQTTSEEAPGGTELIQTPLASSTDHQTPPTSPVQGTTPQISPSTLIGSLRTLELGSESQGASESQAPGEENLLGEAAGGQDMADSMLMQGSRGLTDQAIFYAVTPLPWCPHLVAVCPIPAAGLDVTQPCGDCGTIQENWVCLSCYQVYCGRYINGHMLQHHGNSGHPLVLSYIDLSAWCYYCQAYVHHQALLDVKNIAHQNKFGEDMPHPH

type I RH-YFP parasites = assay: RH-YFP type I Toxoplasma proliferation in HFF; assay type: cell-based, Toxoplasma gondii; settings: 0.025 to 0.8 uM, 24 h
Description: as §3, §4

[8] = HeLa nuclear extract, fluorimetric HDAC kit, read-out: HELA Nuclear extracts IC50
[9] = Toxoplasma gondii, Fibroblast, HFF infected, read-out: T. gondi IC50
[10] = text summary of Table 1, less active compounds, read-out: HDAC inhibitory activity against HeLa cell nuclear extract
[11] = Toxoplasma gondii, Fibroblast, read-out: T. gondi IC50, HFF infected, 24 h

Row | Structure (SMILES) | IS Selectivity index LD50 (HFF)/IC50 T. gondii (HFF cells) | HFF LD50 (HFF cells; human) | IC50 [2, 8] | IC50 [4, 9] | IS Selectivity index LD50 (THP-1)/IC50 T. gondii (THP-1 cells) | THP-1 LD50 (THP-1 cells; human) | also measured
1 | O=C(NO)c1ccc(CNC(=O)c2cccc(F)c2)cc1 [Compound 345] | 11.6 | 58.3 ± 1.2 µM | 866 nM | < 10 µM | 0.3 | 1.7. +/− 0.5 μM | IC50 [1]: 1700 nM; anti-leishmanial activity, in words [3]: anti-leishmanial; anti-toxoplasma activity, in words [4]: anti-toxoplasma activity; IC50 ([4]; read-out: T. gondi IC50, HFF infected): 5 µM
2 | O=C(NO)c1ccc(NC(=O)c2cccc(F)c2)cc1 [Compound 349] | – | >400 µM | 633 nM | > 50 µM | – | 264 ± 8.0 µM | –
3 | O=C(NO)c1ccc(CNS(=O)(=O)c2cccc(F)c2)cc1 [Compound 350] | 7.5 | 300.0 ± 50.0 µM | 8610 nM | 40 µM | 10 | >400 µM | IC50 [2, 10]: ~1000 nM
4 | O=C(NO)c1ccc(NS(=O)(=O)c2cccc(F)c2)cc1 [Compound 351] | 2.3 | 116.5 ± 35 µM | 881 nM | – | 1.53 | – | IC50 [4, 11]: 50 µM
5 | Cc1nc(-c2ccc(C(=O)NCc3ccc(C(=O)NO)cc3)cc2)cs1 [Compound 360] | 4.5 | 22.6 ± 9.5 µM | 399 nM | – | 0.4 | 2.2 ± 0.5 µM | IC50 [1]: 2200 nM; IC50 ([3]; antiparasitic activity): > 60 µM
6 | Cc1nc(-c2ccc(C(=O)Nc3ccc(C(=O)NO)cc3)cc2)cs1 [Compound 361] | 1.5 | 25.0 ± 4.0 µM | 1820 nM | – | 25 | >400 µM | IC50 [2, 10]: ~1000 nM; IC50 [3]: > 60 µM; IC50 [4, 11]: > 10 µM
7 | COc1cccc(CC(=O)NCc2ccc(C(=O)NO)cc2)c1 [Compound 362] | >8 | >400 µM | 518 nM | 52.5 µM | 0.5 | 30.5 ± 3.0 µM | –
8 | COc1cccc(CC(=O)Nc2ccc(C(=O)NO)cc2)c1 [Compound 363] | 300 | 105 ± 10.5 µM | 85 nM | – | 10.3 | 3.6 ± 0.5 µM | IC50 (recombinant HDAC1): 257 nM; inhibition of human HDAC activity (FIG. 2), in words [5]: most potent inhibitor; IC50 [1]: 3600 nM; IC50 (recombinant HDAC 8): 863 nM; IC50 (recombinant HDAC3): 160 nM; inhibitory activity on type II Prugniaud parasites proliferation, in words [6]: potent inhibitory effect; also recorded: potent inhibitory activity; IC50 (Babesia): ~1000 nM; inhibitory effect on deacetylase activity of T. gondii extracts, in words [7]: strong inhibitory effect; inhibition of T. gondii deacetylase activity ([7]; total protein extracts): 44%; IC50 (recombinant HDAC6): 45 nM
9 | COc1ccccc1CNC(=O)c1ccc(C(=O)NO)cc1 [Compound D16, reference compound] | – | – | 7740 nM | – | – | – | IC50 (recombinant HDAC1; read-out: IC50 recombinant HDAC 1): > 10000 nM; inhibitory activity on type I RH-YFP parasites proliferation, in words (type I RH-YFP parasites): lack of inhibitory effect; also recorded: no inhibitory activity; inhibitory activity on type II Prugniaud parasites proliferation, in words [6]: no inhibitory activity; inhibitory activity on type II Prugniaud parasites proliferation, in words ([6]; listed as Dl6): lack of inhibitory effect; IC50 (recombinant HDAC6): 198 nM
10 | O=C(CCCCCCC(=O)Nc1ccccc1)NO [SAHA, suberoylanilide hydroxamic acid, reference compound] | – | – | – | – | – | – | THP-1 LD50 (THP-1 cells; MTT cytotoxicity): >200 µM
11 | O=C(NO)c1ccccc1 [ST3, hydroxybenzamide, reference compound] | – | – | – | – | – | – | HFF LD50 (HFF cells; MTT cytotoxicity): >400 µM; IC50 [3]: 29.3 µM; IC50 [4, 11]: > 50 µM
